# Reference: patent US5391800A, “Method for inhibition of cell motility by sphingosine-1-phosphate, its derivatives and mimetics and method of synthesizing sphingosine-1-phosphate and its derivatives” (The Biomembrane Institute, priority 1993, dated 1995)
# How the values were obtained:
# B16/F1 melanoma cells [1] = test: Chemotactic motility of B16/F1 cells through MATRI-GEL-coated transwell filter; type: cell-based, mouse; details: percent relative to control; mean ± S.E., n = 3 or 4; concentration not given
# Experimental: (§1) The assays for determining chemotactic cell motility and chemoinvasion can be performed using transwell plates with a polycarbonate membrane filter (pore size 8 μm) (Costar Scientific, Cambridge, Mass.). Aliguots, e.g., 50 μl, of an aqueous solution of MATRI-GEL (Collaborative Research, Bedford, Mass.) containing SPN-1-P or other inhibitor (e.g., 20 μg/ml for chemotactic motility assay or 200 μg/ml for chemoinvasion assay), is added to each well and dried overnight. The filter is then fitted onto the lower chamber plate. The lower chamber can contain conditioned medium (CM) (i.e., medium used for splenic stromal cell culture, and containing motility factor secreted by these cells), e.g., 0.6 ml, with or without SPN-1-P or other inhibitor. To the upper chamber is added, e.g., about 100 μl, of cell suspension (5×10^4 cells/ml for invasion assay, 5×10^5 cells/ml for motility assay), which is then incubated in 5% CO2 at 37° C. for 70-72 hours (invasion assay) or 20 hours (motility assay). After incubation, cells remaining in the upper chamber are wiped off with a cotton swab, and cells which had migrated to the lower chamber side of the filter are fixed in methanol for 30 seconds and stained with 0.05% toluidine blue. The filter is removed, the stain is solubilized in 10% acetic acid (e.g., 0.1 ml for invasion assay, 0.5 ml for motility assay), and color intensity (optical density) is quantitated by ELISA reading at 630 nm. Using SPN-1-P, a linear relationship was observed between cell number and toluidine blue optical density (FIG. 7).
# (§2) Assays were performed using transwell plates with polycarbonate membrane filters (pore size 8 μm) (Costar Scientific, Cambridge, Mass.). 50 μl aliguots of an aqueous solution of MATRI-GEL (Collaborative Research, Bedford, Mass.) containing 20 μg/ml (for chemotactic motility assay) or 200 μg/ml (for chemoinvasion assay) were added to each well and dried overnight. The filter was fitted onto the lower chamber plate. The lower chamber contained 0.6 ml conditioned medium (CM) (i.e., medium used for splenic stromal cell culture, and containing motility factor secreted by these cells) with or without the suspected inhibitor. To the upper chamber was added 100 μl of cell suspension (5×10^4 cells/ml for invasion assay, 5×10^5 cells/ml for motility assay), which was then incubated in 5% CO2 at 37° C. for 70-72 hours (invasion assay) or 20 hours (motility assay). After incubation, cells remaining in the upper chamber were wiped off with a cotton swab, and cells which had migrated to the lower chamber side of the filter were fixed in methanol for 30 seconds and stained with 0.05% toluidine blue. The filter was removed, the stain was solubilized in 10% acetic acid (0.1 ml for invasion assay, 0.5 ml for motility assay), and color intensity (optical density) was quantitated by ELISA reading at 630 nm. A linear relationship was observed between cell number and toluidine blue optical density (FIG. 7.).
# In experiments with different quantities of MATRI-GEL, cell migration through transwell filter was maximal with 1 μg/well was applied, and when CM was used (FIG. 8). Therefore, chemotactic cell motility, as affected by various SPN derivatives, was assayed under these conditions.
# *Mean ± S.E. of percent relative to control (n = 4). Actual O.D. value
# and 0.147 (HT1080). 6 × 10^4 cells were placed on a transwell
# filter coated with 1.0 μg MATRIGEL in the upper chamber, and cultured
# for 18 hours in the presence of CM and SPN1-P in the lower chamber.
# B16/F1 melanoma cells [2] = test: Chemoinvasion of B16/F1 cells through thick MATRI-GEL layer on transwell filter; type: cell-based, mouse; details: percent relative to control; mean ± S.E., n = 3 or 4; concentration not given; 4200 min
# Experimental: as §1, §2
# Chemoinvasion was measured by the ability of tumor cells in CM (as described above) to migrate through a thick layer of MATRI-GEL during a prolonged incubation period (70 hours). This property is distinct from chemotactic cell motility, which involves a much shorter incubation period (20 hours) and a thin layer of MATRI-GEL. For the chemoinvasion assay, 10 μg of MATRI-GEL was applied to a polycarbonate transwell filter and migration was observed following 70 hours incubation (based on results shown in FIG. 8).
# B16/F1 melanoma cells [3] = test: Growth of B16/F1 melanoma cells (cell count after 48 hr); type: cell-based, mouse; details: Mus musculus, B16-F1; 10 μM; 48 hr; control = 100%; mean ± S.E., n = 3
# Experimental: *Mean ± S.E. (n = 3). For controls (defined as 100%), cell number was
# 10^5 cells were seeded and
# cultured on a 35 mm plastic dish in Dulbecco's modified Eagle's medium
# containing 2% fetal bovine serum in the presence or absence of SPN
# derivatives. 48 hr later, cells were counted.
# human neutrophils = test: Phagokinetic activity of human neutrophils on gold sol-coated plates; type: cell-based; details: 4.5 μM; 2 hours; mean ± S.D.; control 6.3 ± 2.3
# Experimental: Phagokinetic activity is measured by the ability of cells to ingest foreign particles while moving. Cell motility can be estimated as the area of a phagokinetic track on gold sol particle-coated plates as previously described {Albrecht-Buehler, Cell, 11:395 (1977)}. A uniform coating of gold particles is prepared on glass coverslips precoated with bovine serum albumin, and coverslips are rinsed repeatedly to remove non-adhering or loosely-adhering gold particles. Freshly-prepared neutrophils or tumor cells detached from culture are placed in a Petri dish containing the gold sol-coated plate, and incubated for about 2 hours (for human neutrophils) or about 18 hours (for tumor cells). The coverslips are fixed for 1 hour in a 4% formaldehyde solution in phosphate-buffered saline (PBS) and mounted on microscope slides. The phagokinetic tracks are observed on a television connected to a light microscope (Nikon, Tokyo, Japan). Tracks on the television are transferred to translucent sheets, which are then photocopied. Phagokinetic activity is quantitated by cutting and weighing the swept area in the copy.
# Cell motility was estimated as the area of phagokinetic track on gold sol particle-coated plates as previously described {Albrecht-Buehler, Cell, 11:395 (1977)}. A uniform coating of gold particles was prepared on glass coverslips precoated with bovine serum albumin, and the coverslips were rinsed repeatedly to remove non-adhering or loosely-adhering gold particles. Freshly-prepared neutrophils or tumor cells detached from culture were placed in a Petri dish containing the gold sol-coated plate, and incubated for 2 hours (for human neutrophils) or 18 hours (for tumor cells). The coverslips were fixed for 1 hour in 4% formaldehyde solution in phosphate-buffered saline (PBS) and mounted on microscope slides. The phagokinetic tracks were observed on a television connected to a light microscope (Nikon, Tokyo, Japan). Tracks on the television were transferred to translucent sheets, which were then photocopied. Phagokinetic activity was quantitated by cutting and weighing the swept area in the copy.
# **mean ± S.D. Freshlyprepared neutrophils (1 × 10^4
# cell/plate) were seeded on a coverslip precoated with gold sol particles
# in the presence or absence of test compound. 2 hours later, incubation wa
# terminated by adding 200 μl of 10% formaldehyde and the cleared area
# was estimated as described in the text.
# [4] = tested on: PKC of B16/F1 melanoma cells; test: PKC activity of B16/F1 melanoma cells (32P incorporation into histone IIIS); type: biochemical, mouse; details: concentration not given
# Experimental: Effects of SPN derivatives on protein kinase C activity and cell growth of B16/F1 cells was also investigated. […] Toxicity of these compounds to B16/F1 cells and human neutrophils was also examined using a trypan blue exclusion assay after 1 hour incubation with the compounds.
# *Mean ± S.E. (n = 3). For controls (defined as 100%), PKC activity was
# 33225 cpm per tube per 20 min, as measured by ^32 P incorporation int
Compound,% motility (B16/F1 melanoma cells [1]) [%],% invasion (B16/F1 melanoma cells [2]) [%],activity at 10 µM (B16/F1 melanoma cells [3]) [%],Cleared area (human neutrophils),PKC inhibition [4]
NCCO [ethanolamine],85 ± 13,140 ± 41,–,–,–
ceramide monohexoside [CMH],162 ± 29,178 ± 70,–,–,–
CCCCCCCCCCCCC/C=C/[C@@H](O)[C@H](CO)NC(C)=O [N-acetyl-SPN],99 ± 16,96 ± 14,102 ± 4,–,–
NCCOP(=O)(O)O [phosphoethanolamine],86 ± 20,160 ± 57,–,5.9 ± 2.5 × 10^3 μm^2,–
ceramide,–,–,–,5.7 ± 3.0 × 10^3 μm^2,–
sphingomyelin,82 ± 11,138 ± 18,–,–,–
phosphatidylethanolamine,107 ± 18,104 ± 37,–,–,–
"CCCCCCCCCCCCC/C=C/[C@@H](O)[C@H](CO)N(C)C [DMS, N,N-dimethylsphingosine]",–,–,–,–,"in striking contrast to DMS and TMS, SPN-1-P does not inhibit PKC"
